Laboratory results from US20250113824A1, “WEED CONTROL METHOD” (SUMITOMO CHEMICAL COMPANY, LIMITED, priority 2018, published 2025).

Tests used:
[1] = tested on: glyphosate-resistant weeds and volunteer glyphosate-tolerant soybean and cotton; experiment: Soil treatment pot test in greenhouse (Example 1); format: in vivo; details: soil treated on day of seeding; 6.25, 12.5, 25, 50, 100 or 150 g/ha; 200 L/ha; twenty-eight days after treatment
Protocol: (§1) In a plastic pot are seeded glyphosate-resistant Amaranthus palmeri in which the number of copies of EPSPS gene has been increased, glyphosate-resistant waterhemp in which the number of copies of EPSPS gene has been increased, glyphosate-resistant kochia in which the number of copies of EPSPS gene has been increased, marestail which is resistant to glyphosate by involving an ABC transporter, Guernsey fleabane which is resistant to glyphosate by involving an ABC transporter, fleabane which is resistant to glyphosate by involving an ABC transporter, glyphosate-resistant goosegrass having Thr102Ile, glyphosate-resistant goosegrass having Pro106Ser, glyphosate-resistant goosegrass having Pro106Ala, glyphosate-resistant goosegrass having Pro106Leu, glyphosate-resistant goosegrass having Thr102Ile and Pro106Ser, glyphosate-resistant darnel having Thr102Ile, glyphosate-resistant darnel having Pro106Ser, glyphosate-resistant darnel having Pro106Ala, glyphosate-resistant darnel having Pro106Leu, volunteer glyphosate-tolerant soybean, and volunteer glyphosate-tolerant cotton. On the same day, the soil is treated with the present compound at the application rate of 6.25, 12.5, 25, 50, 100 or 150 g/ha. The amount of a liquid sprayed is 200 L/ha. Subsequently, the plants are cultivated in a greenhouse.

[2] = tested on: glyphosate-resistant weeds and volunteer glyphosate-tolerant soybean and cotton; experiment: Foliar treatment pot test in greenhouse (Example 2); format: in vivo; details: foliar application after 21 days cultivation; 6.25, 125, 25, 50, 100 or 150 g/ha; 200 L/ha; fourteen days after treatment
Protocol: as §1, with “The plants are cultivated in a greenhouse for 21 days, and then” for “On the same day, the soil is treated with”, “compound is applied to foliage of the plants” for “compound”, “at” for “at the”, “[…],” for “12.5,”

In the case of `CCOC(=O)COc1ncccc1Oc1cc(-n2c(=O)cc(C(F)(F)F)n(C)c2=O)c(F)cc1Cl` [present compound, ethyl [3-[2-chloro-4-fluoro-5-(1-methyl-6-trifluoromethyl-2,4-dioxo-1,2,3,4-tetrahydropyrimidin-3-yl)phenoxy]-2-pyridyloxy]acetate], the “effect against the weeds” value [1] is reported as “significant effect” and the “effect against the weeds” value [2] is reported as “significant effect”.
